Test: DPPH radical scavenging antioxidant test
Format: biochemical
Details: for Inhibition (radical scavenging inhibition) / A (absorbance): DPPH 0.2 mL (0.75 mM), compound 3 μM in ethanol, 30 min incubation in the dark; for A (absorbance): read at 517 nm against a blank
Procedure: The antioxidant properties of the 8-(4-methoxybenzylideneamino)naphthalene-1,3-disulfonic acid were studied by adding 0.2 mL DPPH (0.75 mM)) to compound 8-(4-methoxybenzylideneamino) naphthalene-1,3 -di sulfonic acid (III) (3 μM) in ethanol. After 30 min of incubation in the dark, the absorbance was read against a blank at 517 nm. Ascorbic acid (vitamin C) was used as standard antioxidants (positive control). A blank sample was prepared by 0.2 ml of DPPH in 3 ml ethanol. A negative control sample was run using ethanol instead of the sample. The radical scavenging inhibition was calculated using the following equation: […]

SMILES | Inhibition (radical scavenging inhibition) (517 nm) | A (absorbance) | antioxidant potential (DPPH), in words (DPPH in vitro test, 517 nm, vitamin C as positive control)
COc1ccc(/C=N/c2cccc3cc(S(=O)(=O)O)cc(S(=O)(=O)O)c23)cc1 [Product III, 8-(4-methoxybenzylideneamino)naphthalene-1,3-disulfonic acid] | 50% | 0.22 | high potential as an antioxidant compared to vitamin C
O=C1O[C@H]([C@@H](O)CO)C(O)=C1O [vit c, Ascorbic acid, reference compound] | 74% | 0.12 | 

Source: patent US11926579B1, “8-(4-methoxybenzylideneamino)naphthalene-1,3-disulfonic acid as an antioxidant compound” (KING FAISAL UNIVERSITY, priority 2023, dated 2024)
